Patent US4526989A, “1,4-Bis (substituted-amino)-5,8-dihydroxy-anthraquinones and leuco bases thereof” (priority 1979, dated 1985)
Read-outs that look alike come from different tables or passages of the source.

Test system: lymphocytic leukemia P388
Experiment: Lymphocytic leukemia P388 test (intraperitoneal administration)
Type: in vivo, DBA/2 mice
Description: The animals used are DBA/2 mice all of one sex, weighing a minimum of 17 g. and all within a 3 gram weight range. There are 5 or 6 animals per test group. The tumor transplant is by intraperitoneal injection of 0.1 ml. of dilute ascitic fluid containing 10^6 cells of lymphocytic leukemia P388. The test compounds are administered intraperitoneally on days one, 5 and 9 (relative to tumor inoculation) at various doses. The animals are weighed and survivors are recorded on a regular basis for 30 days. The median survival time and the ratio of survival time for treated (T)/control (C) animals are calculated.

[1] = 6.25 mg./kg. i.p., days 1, 5 and 9
[2] = 12.5 mg./kg. i.p., days 1, 5 and 9
[3] = 25 mg./kg. i.p., days 1, 5 and 9
[4] = 50 mg./kg. i.p., days 1, 5 and 9
[5] = 100 mg./kg. i.p., days 1, 5 and 9
[6] = 200 mg./kg. i.p., days 1, 5 and 9
[7] = Mus musculus, P388, ip, 6.25 mg./kg. i.p., days 1, 5 and 9, efficacy ≥125%, read-out: T/C × 100
[8] = Mus musculus, P388, ip, 12.5 mg./kg. i.p., days 1, 5 and 9, efficacy ≥125%, read-out: T/C × 100
[9] = Mus musculus, P388, ip, 25 mg./kg. i.p., days 1, 5 and 9, efficacy ≥125%, read-out: T/C × 100
[10] = Mus musculus, P388, ip, 50 mg./kg. i.p., days 1, 5 and 9, efficacy ≥125%, read-out: T/C × 100
[11] = Mus musculus, P388, ip, 100 mg./kg. i.p., days 1, 5 and 9, efficacy ≥125%, read-out: T/C × 100
[12] = Mus musculus, P388, ip, 200 mg./kg. i.p., days 1, 5 and 9, efficacy ≥125%, read-out: T/C × 100

Compound | Median Survival Time [1] | Median Survival Time [2] | Median Survival Time [3] | Median Survival Time [4] | Median Survival Time [5] | Median Survival Time [6] | response vs control in vivo at 6.25 mg/kg [7] | response vs control in vivo at 12.5 mg/kg [8] | response vs control in vivo at 25 mg/kg [9] | response vs control in vivo at 50 mg/kg [10] | response vs control in vivo at 100 mg/kg [11] | response vs control in vivo at 200 mg/kg [12] | also measured
CC(O)CNCCNC1=C2C(=O)c3c(O)ccc(O)c3C(=O)C2=C(NCCNCC(C)O)CC1 (centres unmarked) [Leuco-1,4-bis[2-(2-hydroxy-1-propylamino)ethylamino]-5,8-dihydroxyanthraquinone] | 20.0 days | 21.5 days | 20.5 days | 24.0 days | 26.5 days | 9.0 days | 182% | 195% | 186% | 218% | 241% | 82% | –
O=C1C2=C(NCCNCCCO)CCC(NCCNCCCO)=C2C(=O)c2c(O)ccc(O)c21 [Leuco-1,4-bis[2-(3-hydroxy-1-propylamino)ethylamino]-5,8-dihydroxyanthraquinone] | 16.5 days | 19.5 days | 22.0 days | 34.0 days | 38.0 days | 14.0 days | 150% | 177% | – | 309% | 345% | 127% | Median Survival Time (0.78 mg./kg. i.p., days 1, 5 and 9): 18.0 days; Median Survival Time (1.56 mg./kg. i.p., days 1, 5 and 9): 19.5 days; Median Survival Time (3.1 mg./kg. i.p., days 1, 5 and 9): 18.5 days; response vs control in vivo at 25 mg/kg (Mus musculus, P388, ip, read-out: T/C × 100): 200%; response vs control in vivo at 0.78 mg/kg (Mus musculus, P388, ip, 0.78 mg./kg. i.p., days 1, 5 and 9, efficacy ≥125%, read-out: T/C × 100): 164%; response vs control in vivo at 1.56 mg/kg (Mus musculus, P388, ip, 1.56 mg./kg. i.p., days 1, 5 and 9, efficacy ≥125%, read-out: T/C × 100): 177%; response vs control in vivo at 3.1 mg/kg (Mus musculus, P388, ip, 3.1 mg./kg. i.p., days 1, 5 and 9, efficacy ≥125%, read-out: T/C × 100): 168%
O=C1C2=C(NCCN(CCO)CCO)CCC(NCCN(CCO)CCO)=C2C(=O)c2c(O)ccc(O)c21 [Leuco-1,4-bis[2-[di(β-hydroxyethyl)amino]ethylamino]-5,8-dihydroxyanthraquinone] | – | 13.5 days | 15.0 days | 16.0 days | 17.0 days | 19.0 days | – | 135% | 150% | 160% | 170% | 190% | Median Survival Time (6.2 mg./kg. i.p., days 1, 5 and 9): 12.0 days; response vs control in vivo at 6.2 mg/kg (Mus musculus, P388, ip, 6.2 mg./kg. i.p., days 1, 5 and 9, efficacy ≥125%, read-out: T/C × 100): 120%
O=C1C2=C(NCCCNCCO)CCC(NCCCNCCO)=C2C(=O)c2c(O)ccc(O)c21 [Leuco-1,4-bis[3-(2-hydroxyethylamino)-1-propylamino]-5,8-dihydroxyanthraquinone] | 18.0 days | 19.0 days | 18.5 days | 25.0 days | 27.5 days | 33.5 days | 164% | 173% | 168% | 227% | 250% | 305% | Median Survival Time (3.12 mg./kg. i.p., days 1, 5 and 9): 15.0 days; response vs control in vivo at 3.12 mg/kg (Mus musculus, P388, ip, 3.12 mg./kg. i.p., days 1, 5 and 9, efficacy ≥125%, read-out: T/C × 100): 136%
